Assay results: paper PMC9814779, “A triple farnesoid X receptor and peroxisome proliferator-activated receptor α/δ activator reverses hepatic fibrosis in diet-induced NASH in mice” (Communications Chemistry, 2020)

Key:
[1] = tested on: (foz/foz) mice under atherogenic diet; settings: without a pronounced effect on hepatic inflammation; cited from earlier work
[2] = molecular target: T1, human PPARδ ligand-binding domain (Gal4 chimera) (Homo sapiens, UniProt Q03181); assay: Gal4 hybrid reporter gene assay, PPARδ; format: cell-based; set-up: Emax: dose or concentration left out as unconfirmed
T1 construct: coding for the hinge region and LBD of the canonical isoform of the respective nuclear receptor; expressed in transfected cells; host or cells: HEK293T
T1 sequence (Q03181 211-439 limits assumed): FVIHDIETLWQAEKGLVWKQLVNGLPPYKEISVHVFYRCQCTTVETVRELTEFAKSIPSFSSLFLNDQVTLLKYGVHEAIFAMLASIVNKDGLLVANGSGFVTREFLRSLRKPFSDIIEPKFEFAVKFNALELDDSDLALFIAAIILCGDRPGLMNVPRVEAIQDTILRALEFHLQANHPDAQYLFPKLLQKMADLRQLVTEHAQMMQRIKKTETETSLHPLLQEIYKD

[3] = molecular target: T2, human PPARγ ligand-binding domain (Gal4 chimera) (Homo sapiens, UniProt P37231); assay: Gal4 hybrid reporter gene assay, PPARγ; format: cell-based; set-up: Emax: dose or concentration left out as unconfirmed
T2 construct: coding for the hinge region and LBD of the canonical isoform of the respective nuclear receptor; expressed in transfected cells; host or cells: HEK293T
T2 sequence (P37231 238-503 limits assumed): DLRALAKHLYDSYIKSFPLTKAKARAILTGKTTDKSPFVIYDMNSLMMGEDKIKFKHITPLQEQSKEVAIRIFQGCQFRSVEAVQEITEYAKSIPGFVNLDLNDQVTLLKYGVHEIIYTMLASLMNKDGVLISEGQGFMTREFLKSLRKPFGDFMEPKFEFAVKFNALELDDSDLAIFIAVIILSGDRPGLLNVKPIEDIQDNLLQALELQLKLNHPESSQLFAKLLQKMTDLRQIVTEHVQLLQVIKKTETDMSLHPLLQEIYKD

[4] = tested on: nuclear receptors related to PPARs and FXR (LXRα/β, RXRα/β/γ, RARα/β/γ, VDR, CAR); settings: previous studies; cited from earlier work
[5] = molecular target: T3, human FXR:retinoid X receptor (RXR) heterodimer (Homo sapiens, UniProt Q96RI1); assay: Full-length FXR reporter gene assay (BSEP response element) in HeLa cells; format: cell-based; set-up: Emax: dose or concentration left out as unconfirmed; settings: HeLa
T3 construct: pcDNA3-hFXR[32] and pSG5-hRXR[33] served for receptor overexpression in the full-length FXR assay; expressed in transfected cells; host or cells: HeLa
T3 sequence (P19793 whole entry): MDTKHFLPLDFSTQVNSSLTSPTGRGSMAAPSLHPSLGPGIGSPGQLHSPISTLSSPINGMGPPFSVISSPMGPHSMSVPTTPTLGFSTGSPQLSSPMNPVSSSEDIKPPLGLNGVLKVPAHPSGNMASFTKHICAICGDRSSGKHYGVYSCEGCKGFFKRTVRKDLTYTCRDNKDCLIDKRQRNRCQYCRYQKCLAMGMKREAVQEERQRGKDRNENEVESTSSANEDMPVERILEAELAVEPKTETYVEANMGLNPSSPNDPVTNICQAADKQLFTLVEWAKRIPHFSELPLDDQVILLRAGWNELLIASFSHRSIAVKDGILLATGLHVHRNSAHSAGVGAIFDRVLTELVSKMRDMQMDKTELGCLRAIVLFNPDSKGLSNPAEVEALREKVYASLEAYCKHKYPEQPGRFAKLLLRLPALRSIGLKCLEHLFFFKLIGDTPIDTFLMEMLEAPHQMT
T3 sequence (Q96RI1 whole entry): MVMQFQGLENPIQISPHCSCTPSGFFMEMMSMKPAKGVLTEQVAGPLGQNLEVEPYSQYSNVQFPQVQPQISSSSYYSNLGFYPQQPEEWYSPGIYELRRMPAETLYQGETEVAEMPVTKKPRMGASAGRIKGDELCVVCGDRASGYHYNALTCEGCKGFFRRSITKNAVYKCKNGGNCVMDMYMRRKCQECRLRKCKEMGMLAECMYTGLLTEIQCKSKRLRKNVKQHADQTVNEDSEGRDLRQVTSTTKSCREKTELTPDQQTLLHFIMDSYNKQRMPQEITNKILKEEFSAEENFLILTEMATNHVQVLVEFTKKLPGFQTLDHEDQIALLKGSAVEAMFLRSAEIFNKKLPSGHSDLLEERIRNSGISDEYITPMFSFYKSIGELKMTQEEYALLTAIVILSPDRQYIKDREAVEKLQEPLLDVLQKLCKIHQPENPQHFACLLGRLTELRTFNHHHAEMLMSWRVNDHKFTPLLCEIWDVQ

[6] = molecular target: T4, human PPARα ligand-binding domain (Gal4 chimera) (Homo sapiens, UniProt Q07869); assay: Gal4 hybrid reporter gene assay, PPARα; format: cell-based; set-up: Emax: dose or concentration left out as unconfirmed
T4 construct: coding for the hinge region and LBD of the canonical isoform of the respective nuclear receptor; expressed in transfected cells; host or cells: HEK293T
T4 sequence (Q07869 239-466 limits assumed): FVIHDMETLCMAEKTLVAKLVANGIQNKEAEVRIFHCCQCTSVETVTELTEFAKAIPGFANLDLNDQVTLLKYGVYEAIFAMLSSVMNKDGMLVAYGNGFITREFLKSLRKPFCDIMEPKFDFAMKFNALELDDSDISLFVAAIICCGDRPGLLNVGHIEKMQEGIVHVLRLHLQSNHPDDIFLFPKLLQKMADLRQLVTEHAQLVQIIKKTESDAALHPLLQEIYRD

STAM NASH = settings: cited from earlier work
[7] = tested on: FXR- and PPAR-regulated gene expression in HepG2 cells; assay: FXR- and PPAR-regulated gene expression in HepG2 cells (qRT-PCR); format: cell-based, human; settings: HepG2, 1 µM, 12 h, vs. vehicle-treated cells
Method: HepG2 cells (DSMZ) were grown in DMEM high glucose, supplemented with 10% FCS, 1 mM SP, penicillin (100 U/mL), and streptomycin (100 μg/mL) at 37 °C and 5% CO2 and seeded in 6-well plates (2 × 10^6 per well). After 24 h, medium was changed to Minimal Essential Medium supplemented with 1% charcoal-stripped FCS, penicillin (100 U/mL), streptomycin (100 μg/mL), and 2 mM L-glutamine. After an additional 24 h, cells were incubated with test compound 41 (0.1 µM, 0.3 µM, 1 μM), OCA (1 μM), or elafibranor (1 µM) dissolved in the same medium with 0.1% DMSO or medium with 0.1% DMSO alone as untreated control for 12 h, harvested, washed with cold phosphate-buffered saline (PBS), and then directly used for RNA extraction. C2C12 cells (American Type Culture Collection, ATCC) were grown in DMEM high glucose, supplemented with 10% FCS, 1 mM SP, penicillin (100 U/mL), and streptomycin (100 μg/mL) at 37 °C and 5% CO2 and seeded in 6-well plates (1 × 10^6 per well). Upon reaching confluence, medium was changed to Eagle’s Minimal Essential Medium supplemented with 2% horse serum, penicillin (100 U/mL), streptomycin (100 μg/mL), and 2 mM L-glutamine. Cells were then differentiated in this medium for 5 days before incubation with test compounds 41 (1 μM) or L165,041 (1 μM) dissolved in the same medium with 0.1% DMSO or medium with 0.1% DMSO alone as untreated control for 8 h. Cells were harvested, washed with cold PBS, and then directly used for RNA extraction. Total RNA was extracted from HepG2 cells or C2C12 cells using the total RNA Mini Kit (R6834-02, Omega Bio-Tek, Inc., Norcross, GA, USA). Two micrograms of extracted RNA were then reverse-transcribed into cDNA with the High-Capacity cDNA Reverse Transcription Kit (4368814, Thermo Fischer Scientific, Inc.). FXR- and PPAR-regulated gene expression was then studied by quantitative real-time PCR (qRT-PCR) analysis with a StepOnePlus System (Life Technologies, Carlsbad, CA, USA) using PowerSYBRGreen (Life Technologies; 12.5 μL per well). Each sample was set up in duplicates and repeated in four independent experiments. Data were analyzed by the comparative ΔΔCT method with glyceraldehyde 3-phosphate dehydrogenase (GAPDH) as reference gene. The following primers were used for HepG2 cells (human genes): hGAPDH: 5 ′-ATATGATTCCACCCATGGCA (fw), 5′-GATGATGACCCTTTTGGCTC (rev); hSHP: 5′-GCTGTCTGGAGTCCTTCTGG (fw), 5′-CCAATGATAGGGCGAAAGAAGAG (rev); hCYP7A1: 5′-CACCTTGAGGACGGTTCCTA (fw), 5′-CGATCCAAAGGGCATGTAGT (rev); hBSEP: 5′-CATGGTGCAAGAAGTGCTGAGT (fw), 5′-AAGCGATGAGCAACTGAAATGAT (rev); hACOX: 5′-ACT CGC AGC CAG CGT TAT G (fw), 5′-AGG GTC AGC GAT GCC AAA C (rev); hPDK4: 5′-AGAGCCTGATGGATTTGGTG (fw), 5′-GCTTGGGTTTCCTGTCTGTG (rev); hCPT1: 5′-ACAGTCGGTGAGGCCTCTTAT (fw), 5′-TCTTGCTGCCTGAATGTGAGT (rev); hFGF21: 5′-ATGGATCGCTCCACTTTGACC (fw), 5′-GGGCTTCGGACTGGTAAACAT (rev). The following primers were used for C2C12 cells (murine genes)[36]: mGAPDH: 5′-CGACTTCAACAGCAACTCCCACTCTTCC (fw), 5′-TGGGTGGTCCAGGGTTTCTTACTCCTT (rev); mPCK: 5′-TGTTTACTGGGAAGGCATCG (fw), 5′-CAGAATCTCGAGTTGGGATGG (rev); mGLUT3: 5′-CGTCCTTGAAGATTCCTGTTGA (fw), 5′-GTC ACC CAA CTA CGT CCA G (rev); mLPL: 5′-GTCAGGTTCTCTCTTGTACAGG (fw), 5′-TCTAACTGCCACTTCAACCAC (rev).

[8] = tested on: diet-induced mouse model of NASH; settings: cited from earlier work
HEK293T and U2OS cells = assay: Multiplex high-content live-cell toxicity assay; format: cell-based; settings: seven concentrations between 100 nM and 100 µM; 2, 12 and 24 h
Method: Before proof-of-concept in vivo evaluation, we profiled stability and cytotoxicity of the triple modulator 41 in vitro. […] To determine cytotoxicity, we employed a multiplex high-content life-cell imaging screen[24] on HEK293T and U2OS cells. For this, the cells were treated with fluorescent probes to detect Annexin V as apoptosis marker (Annexin V Alexa488), dead cells (Yo-Pro3), and DNA/nucleus (Hoechst33342). Cells were then incubated with 41, OCA, or elafibranor at seven concentrations between 100 nM and 100 µM, and cell health was determined by fluorescence imaging after 2, 12, and 24 h (Fig. 6g–i and Supplementary Fig. 5).
Supplementary Methods for in Vitro Characterization
Cytotoxicity was assessed in a high content screen on two different cell lines, HEK293T (ATCC® CRL-1573™) and U2OS (ATCC®HTB-96™), essentially as described previously6. In brief, cells were cultured in DMEM plus L-Glutamine (high glucose) supplemented with 10 % FBS (Gibco) and Penicillin/Streptomycin (Gibco). […]
After 2 h, 12 h and 24 h, cellular shape and fluorescence was analyzed on an automated, high-content confocal microscope (CQ1, Yokogawa). […]
50 ms, 40%; bright field, 300ms, 100% transmission, one centered field per well, 7 z stacks per well with 55 µm spacing. Images were analyzed with the Pathfinder software (Yokogawa). Cells were detected and gated as previously described6. […]
The solubilized test compound (5 μL, final concentration 10 μM in phosphate buffer (0.1 M, pH 7.4)) was preincubated at 37 °C in 432 μL of phosphate buffer (0.1 M, pH 7.4) together with a 50 μL NADPH regenerating system (30 mM glucose-6-phosphate, 4 U/mL glucose-6-phosphate dehydrogenase, 10 mM NADP, 30 mM MgCl2). […] The supernatants were analyzed and test compound was quantified by HPLC: mobile phase: MeOH 83%/H2O 17%/formic acid 0.1%; flow-rate: 1 mL/min; stationary phase: MultoHigh Phenyl phase, 5 μm, 250×4, precolumn, phenyl, 5 μm, 20×4; detection wavelength: 330 and 254 nm; injection volume: 50 μL. […]

[9] = tested on: choline-deficient, L-amino acid-defined, high-fat diet-induced NASH in mice; set-up: method as in PMID 29164820; settings: cited from earlier work

CCO[C@H](COc1ccc(C(F)(F)F)cc1)CSc1ccc(OCC(=O)O)c(C)c1 [seladelpar]
effects in (foz/foz) mice under atherogenic diet [1]: improved steatosis and hepatocyte ballooning

O=C(O)Cc1cccc(NC(=O)c2ccccc2NC(=O)c2ccc3ccccc3c2)c1 [compound 5]
EC50 ([2]; EC50 [μM] PPARδ, HEK293T, mean ± SEM, n = 3): 4.9 ± 0.9 µM | Emax ([2]; read-out: max. rel. act. PPARδ): 34% | EC50 [3]: 16 ± 1 µM | Emax ([3]; read-out: max. rel. act. PPARγ): 14% | selectivity over related nuclear receptors [4]: selective over related nuclear receptors | Emax ([5]; read-out: max. rel. act. FXR): 21% | EC50 ([5]; mean ± SEM, n = 3, read-out: EC50 [μM] FXR): 2.5 ± 0.2 µM | EC50 ([6]; EC50 [μM] PPARα, HEK293T, mean ± SEM, n = 3): 5 ± 1 µM | Emax ([6]; read-out: max. rel. act. PPARα): 37%

CC[C@@H](Oc1cccc(CN(CCCOc2ccc(OC)cc2)c2nc3ccccc3o2)c1)C(=O)O [pemafibrate]
effects in STAM NASH (STAM NASH): counter hepatocyte ballooning in STAM NASH without affecting hepatic steatosis and inflammation

CSc1ccc(C(=O)/C=C/c2cc(C)c(OC(C)(C)C(=O)O)c(C)c2)cc1 [elafibranor]
mRNA expression of FXR-regulated genes (BSEP, SHP, CYP7A1) [7]: no effect on FXR activity | mRNA expression of PPAR-regulated genes (ACOX, PDK4, CPT1, FGF21) [7]: strongly promoted the expression of PPAR-regulated genes | anti-steatotic effect ([8]; OCA 30 mg/kg, OCA/elafibranor 30 mg/kg + 10 mg/kg, elafibranor 10 mg/kg): less pronounced | anti-fibrotic activity ([8]; equivalent, previously reported study): only weak anti-fibrotic activity compared to vehicle | cytotoxicity (cell health, apoptosis, necrosis, lysis) (HEK293T and U2OS cells): non-toxic up to 100 µM concentration over 24 h

CCO[C@@H](Cc1ccc(OCCn2c(C)ccc2-c2ccc(SC)cc2)cc1)C(=O)O [saroglitazar]
anti-steatosis efficacy [9]: stronger anti-steatosis efficacy than the selective agents fenofibrate (PPARα) and pioglitazone (PPARγ)
